Measured values reported in patent US6812213B2, “Steroidal sapogenins and their derivatives for treating alzheimer's disease” (Phytopharm, plc, priority 1998, dated 2004).
Several values for one entry are separate records, joined by “and”; a condition that tells them apart may be missing. Equal entries are not always repeated.

What was measured:
oestrogen receptor = assay: Oestrogenic effects of steroid sapogenin compounds
Source text: In identifying compounds that would have use in the treatment of SDAT and other diseases characterised by reductions in receptor numbers or synaptic transmission, the inventors have given consideration to the need to identify compounds that would have the desired effect but would be devoid of any oestrogenic effects, as these would be unacceptable, particularly in male patients. A number of the compounds claimed to have activity in patent application DE 4303214A1 have marked oestrogenic activity and are therefore unacceptable.
In addition these compounds were tested at other steroid receptors as it was considered that compounds that would be of clinical sue should have no effects at the other steroid receptors.

[1] = tested on: known steroidal receptors; assay: Binding to known steroidal receptors
β-adrenergic receptors = details: Chinese Patent No. CN1096031A; cited from earlier work
M1 cholinergic receptors = details: Chinese Patent No. CN1096031A; cited from earlier work
[2] = tested on: m2 receptors on CHO cells; assay: Expression of m2 receptors on transfected CHO cells (tritiated QNB binding); format: cell-based; details: DMSO control
Method: 1. Chinese hamster ovary (CHO) cells transfected with the a DNA fragment coding for a muscarinic receptor. The cell line used for the majority of the experiments was a cell line expressing the m2 receptor.
The effects of various compounds on the expression of m2 receptors on CHO cells transfected with DNA for the m2 receptor were investigated. Receptor numbers were assayed using tritiated QNB binding and subtracting non-specific binding. Compounds were dissolved in DMSO and DMSO was used as a control. Compounds were tested at a range of final concentrations. Compounds were also tested in the presence and absence of tamoxifen to try to distinguish an oestrogen receptor mediated mechanism.

[3] = tested on: major known classes of membrane bound receptor; assay: Direct binding to major known classes of membrane bound receptor
Source text: Thus it can be postulated that the observed effects are probably not due to for instance an effect at the nicotinic receptor and a consequential increase in the number of muscarinic receptors. This explanation appears to be even less plausible (although it cannot be excluded) if one considers that certain of the compounds have also been shown by the inventors to increase the number of beta adrenergic receptors expressed on peripheral blood lymphocytes. Thus the mechanism would appear to be one which has a more general effect on the regulation of membrane bound receptors.

[4] = tested on: muscarinic receptors on cultured cardiac muscle cells; assay: Muscarinic receptor expression on cultured neonatal cardiac muscle cells (tritiated QNB); format: cell-based, Sprague Dawley rats
Method: 3. Cultured cardiac muscle cells obtained from neonatal Sprague Dawley rats. The cardiac muscle cells express muscarinic receptors, typically m2. The level of these receptors falls on prolonged culture and the effects of compounds of interest in preventing the fall in receptor numbers was investigated.
Cardiac muscle cells were isolated from the ventricular muscle of neonatal Sprague Dawley rats using standard techniques. Cells were cultured in vitro and muscarinic receptor numbers expressed on cell surfaces membrane fragments after homogenisation of cells harvested at various time points were estimated using specific binding of tritiated QNB. […] The experiments were therefore designed to investigate the effects of the various compounds in inhibiting this decline in receptor numbers.

m1 receptor mRNA = m1 receptor mRNA levels in brain by in situ hybridisation; format: in vivo, SD rats; details: for m1 receptor mRNA, comparison SaG vs Aged: 3 mg sarsasapogenin per rat per day in feed, four months, positive means increased
Method: 20 months old pure-line male SD rats were divided randomly into 2 groups. One group received an average of 3 mg of sarsasapogenin per rat per day mixed into the daily feed. The control group received normal food and water. Four months later, their brains were used in hybridisation technique experiments, with 4 to 6 months old rats used as a young control group. Other feeding arrangements for each group were completely identical.
A cDNA chain which respectively corresponds to the maNA of both m1 and m2 was synthesised, m1 corresponds to the 3-18 amino acid sequence of receptor protein, i.e. TGGTGCCAAGACAGTGATGTTGGGACTGACAGCAGGGGGCACTGAGGT, and M2 to the 1-16 amino acid sequence, i.e. ATGAATAACTCAACAAACTCCTCGAACAATGGCTTGGCTATTACCAGT. The cDNA was labelled using a 3′-terminal-label reagent kit with a-^35S-dATP (8.9 TBq/mmol) as the label material. After the reaction had finished, it was purified with a nucleotide column. The specific activity of the batch was estimated (16.67-33.34)×108 MBq/μg. a-^35S-dATP, 3′-terminal-label reagent kit and nucleotide column were obtained from Du Pont Co., USA.
One rat was obtained from each group each time and parallel experiments were performed. The rats were decapitated and their brains removed intact. 15 μm thick coronal slices were prepared in a constantly freezing cryo-microtome (AS-600 cryo-microtome, Anglia Scientific Co, UK). Slices were taken from different areas (identical places for each rat) and were mounted on slides smeared with polylysine, dried in a cool current of air, fixed in a solution of 4% paraformaldehyde (containing 1×phosphate buffer saline (PBS), pH 7.0) for 5 minutes before being washed twice in PBS. They were then placed in 0.25% acetic anhydride solution (containing 0.1 M triethanolamine hydrochloride, Ph 8.0, and 0.9% sodium chloride) for 10 minutes, dehydrated in 70%, 80%, 95%, and 100% ethyl alcohol for 1 minute, degreased in chloroform for 5 minutes, and finally treated in 100% and 95% ethyl alcohol for 1 minute successively.
Slices used as negative controls were taken and dehydrated in ethyl alcohol etc. as detailed above, but treated in advance in 100 mg m1 RNase and 2×SSC solution (salt/sodium citrate solution containing 300 mmol/L sodium chloride and […] sodium citrate) for 2 hours at 37° C. […]
Autoradiographs were prepared in a dark room, the specimen and the hyperfilm beta max being pressed together using the contact method and placed in a cassette with a desiccant, exposed at 4° C. for 2 to 3 weeks. […] Finally, the autoradiographs were analysed using a computerised image analyser (VIDAS imaging analyser, Kontron, Germany).

[5] = Molar concentration of compound 10^−5

| Compound | Oestrogenic Activity (oestrogen receptor) | Effect on receptor expression—given as % increase compared to control (negative values in brackets) [2, 5] [%] | Concentration of compound causing a significant increase in number of receptors expressed on neonatal cardiac muscle after 10 days in vitro culture [4] | other results |
| --- | --- | --- | --- | --- |
| Sarsasapogenin | Negative | 34 | 10^−5 M | binding to known steroidal receptors [1]: do not bind; regulation of β-adrenergic receptors (β-adrenergic receptors): down-regulate; regulation of M1 cholinergic receptors (M1 cholinergic receptors): up-regulate; direct binding to membrane bound receptors [3]: not to bind directly; m1 receptor mRNA, comparison SaG vs Aged (m1 receptor mRNA; Cortex): 5.77 ± 3.82 (20); m1 receptor mRNA, comparison SaG vs Aged (m1 receptor mRNA; Hippocampus): 0.96 ± 4.26 (10); m1 receptor mRNA, comparison SaG vs Aged (m1 receptor mRNA; Striatum, p < 0.01, listed as SaG): significant increase and 15.71 ± 3.27 (10); levels of M receptor mRNA (m1 receptor mRNA; rats treated with SaG): raised |
| C[C@@H]1CC[C@@]2(OC1)O[C@H]1C[C@H]3[C@@H]4C[C@@H](O)[C@@]5(O)C[C@@H](O)CC[C@]5(C)[C@H]4CC[C@]3(C)[C@H]1[C@@H]2C [Anzurogenin D] | Negative | 22 | 10^−6 M | – |
| Smilagenin | Negative | 57 | 10^−6 M | Effect on receptor expression—given as % increase compared to control (negative values in brackets) ([2]; Molar concentration of compound 10^−6): 18% |
| C[C@@H]1CC[C@@]2(OC1)O[C@H]1C[C@H]3[C@@H]4CC=C5C[C@@H](O)C[C@@H](O)[C@]5(C)[C@H]4CC[C@]3(C)[C@H]1[C@@H]2C [Ruscogenin] | Positive | – | – | – |
| C[C@@H]1CC[C@@]2(OC1)O[C@H]1C[C@H]3[C@@H]4CC=C5C[C@@H](O)CC[C@]5(C)[C@H]4CC[C@]3(C)[C@H]1[C@@H]2C [Diosgenin] | Positive | – | – | – |
| Astragaloside | Negative | – | 10^−5 M | – |
| Tigogenin | Negative | – | – | – |
